# Experimental data from patent publication US20240277829A1, “HIV-1 VACCINATION AND SAMT-247 MICROBICIDE TO PREVENT HIV-1 INFECTION” (priority 2021, published 2024).
# How the values were obtained:
# [1] = system: mucosal Th1 and Th2 cells; assay: Frequencies and cytokine levels of macaque rectal mucosal T cells following SAMT-247 and PMA stimulation; format: cell-based; conditions: following PMA stimulation
# Excerpt: Additionally, rectal tissue from 9 macaques was used for an in vitro study. The age-matched macaques from this separate study (P204) included 4 animals vaccinated against HIV and 5 naïve animals, all challenged with SHIV. Rectal tissue was obtained post challenge from 7 infected and 2 uninfected animals for the P204 study analysis. Extra cells were available from that collection and were used here for the in vitro study.
# Frequencies and cytokine levels of macaque rectal mucosal NK cells and T cells following SAMT-247 and PMA stimulation. NK/ILC and T cell frequencies and cytokine levels were measured in macaque rectal mucosa. Freshly collected rectal biopsies were processed to single cells and cultured in R10 in the presence/or absence of SAMT-247 and/or PMA for 12 hours. Subsequently, cells were stained for live cells with Live/Dead Blue dye (cat. #L34962, 0.5 μl) from Thermofisher; followed by surface staining with the following: BUV737 anti-CD3 (SP34-2; cat. #741872, 5 μl), BV711 anti-CD4 (L200; cat. #563913, 5 μl), BV650 anti-NKp44 (P44-8; cat. #744302, 5 μl), Alexa700 anti-CD20 (2H7; cat. #560631, 5 μl), BV786 anti-CD45 (D058-1283; cat. #563861, 5 μl) from BD Biosciences; APC-H7 anti-CD11b (ICRF44; cat. #47-0118-42, 5 μl), PE-Cy5 anti-CD95 (ICRF44; cat. #15-0959-42, 5 μl) from eBioscience; BV570 anti-CD8 (RPA-T8; cat. #301038, 5 μl), BV605 anti-CCR6 (G034E3; cat. #353420, 5 μl), APC anti-CXCR3 (G025H7; cat. #353708, 5 μl), from Biolegend and PE-Cy7 anti-NKG2A (Z199; cat. #B10246, 5 μl) from Beckman coulter for 30 minutes at room temperature. This was followed by permeabilization with a FOX3-transcription buffer set (cat. #00-5523-00) from eBioscience according to the manufacture's recommendation and subsequently intracellular staining with the following: BV750 anti-TNF-α (MAB11; cat. #566359, 5 μl), BUV395 anti-IFN-γ (B27; cat. #563563, 5 μl), BV510 anti-GranB (GB11; cat. #563388, 5 μl), BV421 anti-IL-10 (JES3-9D7; cat. #564053, 5 μl) from BD Biosciences; PE-Cy5.5 anti-IL-17 (BL168; cat. #512314, 5 μl) from Biolegend; and FITC anti-Perforin (pf-344; cat. #3465-7, 5 μl) from MABTECH for 30 minutes at room temperature. Flow cytometry acquisitions were performed on a FACSymphony A5 and examined using FACSDiva software (BD Biosciences).
# [2] = system: NKG2A^+ cells; assay: NKG2A^+ cells, blood and mucosa, PMA (Table 1 summary); format: cell-based; conditions: * Zinc dependence
# Procedure: Intracellular cytokines of Human blood NK cells using SAMT-247 and PMA stimulation with or without zinc chelator. The levels of NKG2A^+ NK cells were measured in blood of healthy humans. Human PBMCs were thawed and cultured in R10 in the presence or absence of SAMT-247 and/or PMA for 12 hours. Cells were incubated with or without Zinc chelator TPEN (cat. #P4413-100 MG, 5 μM) for 12 h. Subsequently, PBMCs were surface stained with the following: BUV737 anti-CD3 (SP34-2; cat. #741872, 5 μl), Alexa700 anti-CD20 (2H7; cat. #560631, 5 μl), BV786 anti-CD45 (HI30; cat. #563716, 5 μl) from BD Biosciences; APC-H7 anti-CD11b (ICRF44; cat. #47-0118-42, 5 μl) from eBioscience and PE-Cy7 anti-NKG2A (Z199; cat. #B10246, 5 μl) from Beckman coulter for 30 minutes at room temperature. This was followed by permeabilization with FOX3-transcription buffer set (cat. #00-5523-00) from eBioscience according to the manufacture's recommendation and subsequently intracellular staining with the following: BV750 anti-TNF-α (MAB11; cat. #566359, 5 μl), BUV396 anti-IFN-γ (B27; cat. #563563, 5 μl), BV510 anti-GranB (GB11; cat. #563388, 5 μl) from BD Biosciences; and FITC anti-Perforin (pf-344; cat. #3465-7, 5 μl) from MABTECH for 30 minutes at room temperature. Flow cytometry acquisitions were performed on a FACSymphony A5 and examined using FACSDIVA™ software (BD Biosciences).
# Frequencies and cytokine levels of macaque rectal mucosal NK cells and T cells following SAMT-247 and PMA stimulation. NK/ILC and T cell frequencies and cytokine levels were measured in macaque rectal mucosa. Freshly collected rectal biopsies were processed to single cells and cultured in R10 in the presence/or absence of SAMT-247 and/or PMA for 12 hours. […]
# [3] = system: SIVmac251; conditions: cited from earlier work
compound,measurement,setting,value
CC(=O)Sc1ccccc1C(=O)NCCC(N)=O [SAMT-247],IL-10 production in mucosal Th1 cells,[1],increase
same,TNF-α production in mucosal Th1 and Th2 cells,[1],significant decrease
same,Cytokine,[2]; IFN-γ,<IFN-γ *
same,Cytokine,[2]; TNF-α,<TNF-α *
same,Cytokine,[2]; granzyme and perforin,>Granzyme/Perforin
same,effect in the SIVmac251 model,"[3]; SAMT-247 alone 3 hours prior to each challenge, animals mock immunized with empty Ad vector and alum (Helmold Hait et al. 2020)",protective effect
same,risk of SIVmac251 acquisition,[3]; gel given four hours before challenge exposure (Helmold Hait et al. 2020),unable to decrease
